Assay results from a compilation of properties of binary mixtures (doi:10.1016/j.jtice.2024.105468).

Test: xn = mol fraction of the nth substance listed
Details: 100 kPa

COCCO + CCCC[n+]1ccn(C)c1.[Br-]
x2 = 0
Details	viscosity [mPa·s]
298.15 K	1.57
303.15 K	1.5
308.15 K	1.35
313.15 K	1.23

CCCC[n+]1ccn(C)c1.[Br-] + COCCO
viscosity [mPa·s]
Details	x1 = 0.1002	x1 = 0.1999	x1 = 0.3002	x1 = 0.4	x1 = 0.5	x1 = 0.5999	x1 = 0.7002	x1 = 0.8	x1 = 0.8975	x1 = 1
298.15 K	10	34	74.5	124	179	247	–	527	843	1451
303.15 K	6.65	19.6	41.1	68.9	–	139	192	280	447	837
308.15 K	5.03	13	26.9	–	63.6	86.3	114	162	256	506
313.15 K	3.71	8.79	17.5	–	–	55.5	–	106	167	330
